Laboratory results taken from patent US20030232860A1, “Medicine comprising dicyanopyridine derivative” (priority 2000, published 2003).
Where a name gives a salt, the structure may show the parent alone.

Tests used:
[1] = test system: rat's removed bladder specimen; experiment: Inhibition of the contraction of rat's removed bladder specimen (15 mM K+-induced contraction, organ bath); conditions: SD male rat bladder strips, dose giving 50% inhibition of contraction area
Excerpt: Since the inhibitory action is blocked by a known maxi-K channel blocker charybdotoxin or iberiotoxin, it is confirmed that the effect of the compounds of the invention is based on the maxi-K channel opening effect. Thus, the pharmacological effect of the compounds of the invention was confirmed according to the following method.
<Inhibitory Effect in Construction of the Rat's Removed Bladder Specimen>
In this experiment, SD-family male rats (9-13 weeks of age) were used. The rats were killed by bleeding under ether anesthesia, and the bladders were removed. The removed bladders were immediately washed in a Kiebs-Henseleit solution (NaCl 118.4, KCl 4.7, KH2PO4 1.2, MgSO4 1.2, CaCl2 2.5, NaHCO3 25.0, glucose 11.1 [mM], aeration with 95% O2/5% CO2 mixed gas) kept at 37° C., and prepared into rectangular specimens of about 10 mm long and about 2 mm width on a Petri dish filled with the Klebs-Henseleit solution. The respective specimens were ligated at the both ends with a cotton string via a wire hook, and the one end was fixed to an FD pick-up and the other hung down vertically in an organ bath filled with the Klebs-Henseleit solution. After completion of the operation, 1.0 g of static tensile stress was given to the respective slices, which were then allowed to stand for 1.5-2 hours to stabilize. Then, a KCl solution was added to the organ bath so that the final K^+ ion concentration become 15 mM to induce the contraction. Thereafter, the specimens were further allowed to stand for about 1-2 hours to stabilize, and the test was started. The contraction of the smooth muscle was measured isometrically through the FD pick-up, and the output signal was amplified through a strain stress amplifier to continuously record a chart on a pen recorder. At the same time, the respective contraction wave forms to be analyzed were recorded on a personal computer as magnetic data through an analogue/digital signal converter, and the under-area of the contraction was calculated by analytical software. The contraction 5 minutes immediately after the start of the test was regarded as the value before administration of the drug to be tested (100% reference value). The drug to be tested was added into the bath at intervals of 30 minutes, and the contraction for 5 minutes, respectively 25 minutes after the administration, was analyzed. The drug to be tested was administered at a common ratio of 3 or 10 accumulatively. The effect of the drug to be tested was represented by the dose by which 50% inhibition was attained to the value before the administration (100% reference value). Additionally, the wave form of contraction at the highest dose of the drug was recorded, and then a maxi-K channel selective blocker, charybdotoxin or iberiotoxin, was administered so that the final concentration in the organ bath became 100 nM. Thus, the effect of the drug was observed whether it was blocked or not.

[2] = test system: rhythmic bladder contraction in rats under urethane anesthesia; experiment: Rhythmic contraction of the bladder in rats under urethane anesthesia; type: in vivo, rat; conditions: urethane-anesthetized SD female rats, i.d.; for inhibition in vivo at 10 mg/kg: Rattus norvegicus, intraduodenal, up to 2 hours, read-out: Inhibition of frequency of the bladder contraction max % inhibition; for Frequency of Bladder Contraction Retention time of 50% Inhibition: 10 mg/kg
Excerpt: <Effect on the Rhythmic Contraction of the Bladder in Rats Under Urethane Anesthesia>
SD-Family female rats (about 300 g) were used. A catheter was inserted into the bladder through the external urethral orifice under urethane anesthesia and spontaneous breathing. The other end was connected to a pressure transducer and an infusion pump through a three-way cock. On the other hand, another catheter for measuring blood pressure was inserted into the right common carotid artery. Physiological saline warmed at about 38° C. was injected in the bladder at a rate of 4.2 ml/hr until rhythmical bladder contraction was induced. Change of the internal pressure in the bladder was continuously recorded on a recorder. After the rhythmical bladder contraction was stabilized, a test compound suspended in 0.5% methylcellulose aqueous solution was administered through a catheter which had been attached to the duodenum. Thus, frequency of the bladder contraction (every 10 minutes), force of bladder contraction and average blood pressure were observed as evaluation items up to 2 hours after administration of the test compound.

[3] = test system: murine removed bladder smooth muscle; conditions: cited from earlier work
[4] = test system: rhythmic vesical contraction in an anesthetized rat; conditions: cited from earlier work

melting point [°C] | IC50 [1] [nM] | Structure (SMILES) | inhibition in vivo at 10 mg/kg [2] [%] | Frequency of Bladder Contraction Retention time of 50% Inhibition [2] [min] | Relaxant effect for the murine removed bladder smooth muscle [3] | Rhythmic vesical contraction [4]
240 to 241 | 230 | COc1nc(N)c(C#N)c(-c2ccccc2F)c1C#N [Example 3, 2-amino-6-methoxy-4-(2-fluorophenyl)pyridine-3,5-dicarbonitril] | 97 | 39 |  | 
134 to 135 | 1300 | COc1nc(N)c(C#N)c(C2CCCCO2)c1C#N (stereo not shown) [Example 6, 2-amino-4-(2-tetrahydropyranyl)-6-methoxypyridine-3,5-dicarbonitrile] | 65 | 39 |  | 
205 to 206 | 410 | C#CCOc1nc(N)c(C#N)c(-c2ccccc2F)c1C#N [Example 11, 2-amino-4-(2-fluorophenyl)-6-(prop-2-yn-1-yloxy)pyridine-3,5-dicarbonitrile] | 87 | 27 |  | 
219 to 220 | 410 | N#Cc1c(N)nc(OCC(F)F)c(C#N)c1-c1ccccc1F [Example 12, 2-amino-6-(2,2-difluoroethoxy)-4-(2-fluorophenyl)pyridine-3,5-dicarbonitrile] | 77 | 31 |  | 
 | 2800 | N#Cc1c(N)nc(OCCOC(=O)[C@@H](N)Cc2ccccc2)c(C#N)c1-c1ccccc1 [Example 15, 2-[(2-amino-3,5-dicyano-4-phenylpyridin-6-yl)oxy]ethyl (S)-2-amino-3-phenylpropanoate monohydrochloride monohydrate] | 89 | 36 |  | 
192 to 193 | 1400 | COc1nc(NC(C)=O)c(C#N)c(-c2ccccc2F)c1C#N [Example 58, N-[3,5-dicyano-4-(2-fluorophenyl)-6-methoxypyridin-2-yl]acetamide] | 93 | 46 |  | 
139 to 140 | 1300 | COc1nc(N)c(C#N)c(CC2CCCCC2)c1C#N [Example 150, 2-amino-4-cyclohexylmethyl-6-methoxypyridine-3,5-dicarbonitrile] | 81 | 30 |  | 
215 to 216 | 1000 | COc1nc(N)c(C#N)c(Cc2ccccc2)c1C#N [Example 151, 2-amino-4-benzyl-6-methoxypyridine-3,5-dicarbonitrile] | 71 | 26 |  | 
 | 1100 | Cc1c(-c2ccccc2F)[nH]c(N)c1C#N [NS-8] |  |  | exhibits a relaxant effect | makes rhythmic vesical contraction subsided

Structure (SMILES) | melting point [°C] | IC50 [1] [nM] | inhibition in vivo at 10 mg/kg [2] [%] | Frequency of Bladder Contraction Retention time of 50% Inhibition [2] [min] | Relaxant effect for the murine removed bladder smooth muscle [3] | Rhythmic vesical contraction [4]
COc1nc(N)c(C#N)c(-c2ccc(N)cc2)c1C#N.Cl.O [Example 20, 2-amino-(4-aminophenyl)-6-methoxypyridine-3,5-dicarbonitrile monohydrochloride monohydrate] |  | 110 | 86 | 40 |  | 
